Values quoted from earlier work, collected in patent US20260130846A1, “ORAL PRODUCT” (NICOVENTURES TRADING LIMITED, priority 2022, published 2026).

Columns and labels:
[1] = humans
[2] = mammals

SMILES: CCNC(=O)CC[C@H](N)C(=O)O [Theanine, L-γ-glutamylethylamide]
- Absorption; plasma levels after oral consumption [1]: rapidly absorbed, with plasma levels rising in a linear dose-related manner
- Time for which brain levels continue to increase after consumption [2]: 4 h
